Data taken from patent publication EP3046573B1, “AMYLIN ANALOGUES” (Zealand Pharma A/S, priority 2013, dated 2015).
Numbered stars: 1 amine (or outer) side, 2 acyl side, 3 side chain; on linkers, the order of the positions; unused ones are H or OH. Bridge positions count the residues as written; N and C are the ends. Square brackets hold non-standard residues; d marks the D form. Peptide text beside a SMILES is read from it. * marks the point of attachment. C20 diacid = O=C(O)CCCCCCCCCCCCCCCCCCC(=O)*; γGlu = O=C(O)[C@H](CCC(=O)[*:2])N[*:1]; Hyp = O=C(O)[C@@H]1C[C@@H](O)CN1; NMeI = CC[C@H](C)[C@H](NC)C(=O)O; Sar = CNCC(=O)O

How the values were obtained:
[1] = molecular target: T1, human amylin receptor 3 (hAMYR3) consisting of hCTR2 co-expressed with human Receptor Activity Modifying Protein 3 (hRAMP3) (Homo sapiens, UniProt O60896+P30988); assay: hAMYR3 assay: induction of cAMP (AlphaScreen cAMP Assay kit) in COS7 cells expressing hAMYR3; type: cell-based; conditions: cAMP induction in COS7 cells expressing hAMYR3; average of a minimum of 3 determinations; read-out: hAMY R3 EC50
T1 construct: expressed in transfected cells
T1 sequence (P30988 25-474): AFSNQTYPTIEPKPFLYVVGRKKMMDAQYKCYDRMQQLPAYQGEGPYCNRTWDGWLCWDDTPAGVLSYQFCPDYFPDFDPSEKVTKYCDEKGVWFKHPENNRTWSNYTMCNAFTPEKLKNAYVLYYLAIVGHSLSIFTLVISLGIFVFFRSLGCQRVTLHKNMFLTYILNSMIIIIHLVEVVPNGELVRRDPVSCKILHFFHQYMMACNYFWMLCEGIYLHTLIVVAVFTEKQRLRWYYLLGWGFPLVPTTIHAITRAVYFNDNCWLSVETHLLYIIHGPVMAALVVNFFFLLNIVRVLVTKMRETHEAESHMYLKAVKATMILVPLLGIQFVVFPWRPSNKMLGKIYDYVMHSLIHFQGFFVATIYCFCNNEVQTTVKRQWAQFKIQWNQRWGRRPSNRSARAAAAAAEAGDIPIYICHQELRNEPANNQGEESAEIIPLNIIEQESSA
T1 sequence (O60896 24-148 partner): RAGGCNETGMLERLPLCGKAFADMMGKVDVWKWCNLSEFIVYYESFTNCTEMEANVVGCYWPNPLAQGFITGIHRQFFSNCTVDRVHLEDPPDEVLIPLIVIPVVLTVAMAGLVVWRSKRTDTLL
Method in brief: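 cAMP accumulation read by AlphaScreen in lysates of RAMP-naive COS7 cells stably transfected with hCTR2 plus hRAMP3. Cells exposed to peptide dilutions for 15 min, 37° C, with 100 µM IBMX; 4PL fitting gave EC50 and efficacy relative to pramlintide.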

[2] = molecular target: T2, human calcitonin receptor (hCTR2) (Homo sapiens, UniProt P30988); assay: hCTR2 assay: induction of cAMP (AlphaScreen cAMP Assay kit) in COS7 cells expressing hCTR2; type: cell-based; conditions: cAMP induction in COS7 cells expressing hCTR2; average of a minimum of 3 determinations; read-out: hCTR2 EC50
T2 construct: expressed in transfected cells
T2 sequence (P30988 25-474): T1 sequence (P30988 25-474)
Method in brief: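 Cells were seeded one day ahead, washed, then exposed to rising peptide concentrations for 15 min at 37° C in the presence of 100 µM IBMX. After lysis for 10 min at room temperature, cAMP was quantified by AlphaScreen and EC50 values derived by 4PL fitting.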

[3] = Solubility assessment (turbidity absorbance at 325 nm); type: physicochemical; conditions: stock 2 mg/ml diluted 1:1, ambient temperature (typically 25°C), n=1; for Solubility, Acetate buffer pH 4: 100 mM acetate buffer pH 4.0; for Solubility, Acetate buffer pH 5: 100 mM acetate buffer pH 5.0; for Solubility, Histidine buffer pH 6: 100 mM histidine buffer pH 6.0; for Solubility, Histidine buffer pH 7: 100 mM histidine buffer pH 7.0; for Solubility, Phosphate buffer pH 6: 100 mM phosphate buffer pH 6.0; for Solubility, Phosphate buffer pH 7: 100 mM phosphate buffer pH 7.0; for Solubility, Phosphate buffer pH 7.5: 100 mM phosphate buffer pH7.5
Method in brief: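 Turbidimetric screen across pH 4.0–7.5 in 100 mM acetate, histidine and phosphate buffers. A 2 mg/ml peptide stock (pH 2.5) was diluted 1:1 into each, then A325 measured at ambient temperature; values ≤ 0.02 AU denoted solubility of 1 mg/ml or more.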

Row | EC50 [1] | EC50 [2] | Solubility, Acetate buffer pH 4 [3] | Solubility, Acetate buffer pH 5 [3] | Solubility, Histidine buffer pH 6 [3] | Solubility, Histidine buffer pH 7 [3] | Solubility, Phosphate buffer pH 6 [3] | Solubility, Phosphate buffer pH 7 [3] | Solubility, Phosphate buffer pH 7.5 [3] | SMILES
1 | 0.35 nM | 0.15 nM | SS (SS indicates solubility ≥ 1mg/ml) | SS (SS indicates solubility ≥ 1mg/ml) | SS (SS indicates solubility ≥ 1mg/ml) | SS (SS indicates solubility ≥ 1mg/ml) | SS (SS indicates solubility ≥ 1mg/ml) | SS (SS indicates solubility ≥ 1mg/ml) | SS (SS indicates solubility ≥ 1mg/ml) | CC[C@H](C)[C@@H](C(=O)N[C@@H](CC(C)C)C(=O)N[C@@H](CO)C(=O)N[C@@H](CO)C(=O)N[C@H](C(=O)N[C@@H](CCC(=O)O)C(=O)N[C@H](C(=O)NCC(=O)N[C@@H](CO)C(=O)N[C@@H](CCC(=O)O)C(=O)N[C@H](C(=O)N1CCC[C@H]1C(N)=O)[C@@H](C)O)C(C)C)[C@@H](C)O)N(C)C(=O)[C@H](C)NC(=O)CN(C)C(=O)[C@H](Cc1ccccc1)NC(=O)[C@H](CO)NC(=O)[C@H](CO)NC(=O)[C@H](CO)NC(=O)[C@H](CO)NC(=O)[C@H](CCCNC(=N)N)NC(=O)[C@H](Cc1c[nH]cn1)NC(=O)[C@H](CC(C)C)NC(=O)[C@H](Cc1ccccc1)NC(=O)[C@H](CCC(=O)O)NC(=O)[C@H](C)NC(=O)[C@H](CC(C)C)NC(=O)[C@H](CCCNC(=N)N)NC(=O)[C@H](CO)NC(=O)[C@@H](NC(=O)[C@H](C)NC(=O)[C@@H]1CSSC[C@H](NC(=O)[C@H](CCCNC(=N)N)NC(=O)CC[C@H](NC(=O)CCCCCCCCCCCCCCCCCCC(=O)O)C(=O)O)C(=O)N[C@@H](CCC(=O)O)C(=O)N[C@@H]([C@@H](C)O)C(=O)N[C@@H](C)C(=O)N[C@@H]([C@@H](C)O)C(=O)N1)[C@@H](C)O [Compound 139, [19CD]-isoGlu-RC()ETATC()ATSRLAEFLHRSSSSF-Gly(Me)-A-Ile(Me)-LSSTEVGSETP-NH2] ({C20 diacid-γGlu}-RCETATCATSRLAEFLHRSSSSF[Sar]A[NMeI]LSSTEVGSETP-NH2; disulfide 2-7)
2 | 0.27 nM | 0.11 nM | SS (SS indicates solubility ≥ 1mg/ml) | SS (SS indicates solubility ≥ 1mg/ml) | SS (SS indicates solubility ≥ 1mg/ml) | SS (SS indicates solubility ≥ 1mg/ml) | SS (SS indicates solubility ≥ 1mg/ml) | II (II indicates solubility ≤ 1 mg/ml) | SS (SS indicates solubility ≥ 1mg/ml) | CC[C@H](C)[C@@H](C(=O)N[C@@H](CC(C)C)C(=O)N[C@@H](CO)C(=O)N[C@@H](CO)C(=O)N[C@H](C(=O)N[C@@H](CCC(=O)O)C(=O)N[C@H](C(=O)NCC(=O)N[C@@H](CO)C(=O)N[C@@H](CCC(=O)O)C(=O)N[C@H](C(=O)N1C[C@H](O)C[C@H]1C(N)=O)[C@@H](C)O)C(C)C)[C@@H](C)O)N(C)C(=O)CN(C)C(=O)[C@H](Cc1ccccc1)NC(=O)[C@H](CO)NC(=O)[C@H](CO)NC(=O)[C@H](CCCNC(=N)N)NC(=O)[C@H](Cc1c[nH]cn1)NC(=O)[C@H](CC(C)C)NC(=O)[C@H](Cc1ccccc1)NC(=O)[C@H](CCC(=O)O)NC(=O)[C@H](C)NC(=O)[C@H](CC(C)C)NC(=O)[C@H](CCCNC(=N)N)NC(=O)[C@H](CCC(=O)O)NC(=O)[C@@H](NC(=O)[C@H](C)NC(=O)[C@@H]1CSSC[C@H](NC(=O)[C@H](Cc2c[nH]c3ccccc23)NC(=O)CC[C@H](NC(=O)CCCCCCCCCCCCCCCCCCC(=O)O)C(=O)O)C(=O)NCC(=O)N[C@@H]([C@@H](C)O)C(=O)N[C@@H](C)C(=O)N[C@@H]([C@@H](C)O)C(=O)N1)[C@@H](C)O [Compound 165, [19CD]-isoGlu-WC()GTATC()ATERLAEFLHRSSF-Gly(Me)-Ile(Me)-LSSTEVGSET-Hyp-NH2] ({C20 diacid-γGlu}-WCGTATCATERLAEFLHRSSF[Sar][NMeI]LSSTEVGSET[Hyp]-NH2; disulfide 2-7)
3 | 0.35 nM | 0.22 nM | SS (SS indicates solubility ≥ 1mg/ml) | SS (SS indicates solubility ≥ 1mg/ml) | SS (SS indicates solubility ≥ 1mg/ml) | SS (SS indicates solubility ≥ 1mg/ml) | SS (SS indicates solubility ≥ 1mg/ml) | SS (SS indicates solubility ≥ 1mg/ml) | SS (SS indicates solubility ≥ 1mg/ml) | CC[C@H](C)[C@@H](C(=O)N[C@@H](CC(C)C)C(=O)N[C@@H](CO)C(=O)N[C@@H](CO)C(=O)N[C@H](C(=O)N[C@@H](CCC(=O)O)C(=O)N[C@H](C(=O)NCC(=O)N[C@@H](CO)C(=O)N[C@@H](CCC(=O)O)C(=O)N[C@H](C(=O)N1CCC[C@H]1C(N)=O)[C@@H](C)O)C(C)C)[C@@H](C)O)N(C)C(=O)[C@H](C)NC(=O)CN(C)C(=O)[C@H](Cc1ccccc1)NC(=O)[C@H](CO)NC(=O)[C@H](CO)NC(=O)[C@H](CO)NC(=O)[C@H](CO)NC(=O)[C@H](CCCNC(=N)N)NC(=O)[C@H](Cc1c[nH]cn1)NC(=O)[C@H](CC(C)C)NC(=O)[C@H](Cc1ccccc1)NC(=O)[C@H](CCC(=O)O)NC(=O)[C@H](C)NC(=O)[C@H](CC(C)C)NC(=O)[C@H](CCCNC(=N)N)NC(=O)CNC(=O)[C@@H](NC(=O)[C@H](C)NC(=O)[C@@H]1CSSC[C@H](NC(=O)[C@H](CCCNC(=N)N)NC(=O)CC[C@H](NC(=O)CCCCCCCCCCCCCCCCCCC(=O)O)C(=O)O)C(=O)N[C@@H](CO)C(=O)N[C@@H]([C@@H](C)O)C(=O)N[C@@H](C)C(=O)N[C@@H]([C@@H](C)O)C(=O)N1)[C@@H](C)O [Compound 132, [19CD]-isoGlu-RC()STATC()ATGRLAEFLHRSSSSF-Gly(Me)-A-Ile(Me)-LSSTEVGSETP-NH2] ({C20 diacid-γGlu}-RCSTATCATGRLAEFLHRSSSSF[Sar]A[NMeI]LSSTEVGSETP-NH2; disulfide 2-7)
